Laboratory results from ChEMBL document CHEMBL5143514, “Investigation of chalcogen bioisosteric replacement in a series of heterocyclic inhibitors of tryptophan 2,3-dioxygenase” (Eur J Med Chem, 2022).
Calls of active or inactive are those of the source. The rule behind the calls is not given here.

How the values were obtained:
[1] = Metabolic stability in liver microsomes assessed as half life at 10 uM measured upto 24 hrs in the presence of NADPH by UPLC analysis; type: ADME, Microsome
[2] = biological target: T1, Indoleamine 2,3-dioxygenase 1 (Homo sapiens, UniProt P14902); assay: Inhibition of human IDO1 expressed in mouse P815B cells using L-tryptophan as substrate incubated for 24 hrs by UPLC analysis; type: cell-based
T1 sequence (P14902 whole entry): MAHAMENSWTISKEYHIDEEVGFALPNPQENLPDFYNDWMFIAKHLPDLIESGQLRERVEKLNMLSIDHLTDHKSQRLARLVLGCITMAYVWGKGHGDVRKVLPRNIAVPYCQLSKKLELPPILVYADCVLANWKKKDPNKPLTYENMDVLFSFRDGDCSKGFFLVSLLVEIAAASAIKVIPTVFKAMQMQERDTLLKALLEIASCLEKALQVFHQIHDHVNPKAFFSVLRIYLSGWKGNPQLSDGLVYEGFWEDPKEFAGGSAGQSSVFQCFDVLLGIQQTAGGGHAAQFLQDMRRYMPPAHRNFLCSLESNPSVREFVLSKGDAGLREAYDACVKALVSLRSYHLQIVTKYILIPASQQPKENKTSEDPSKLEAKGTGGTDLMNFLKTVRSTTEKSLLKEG

A 172 [3] = assay: Cytotoxicity against human A 172 cells assessed as reduction in cell viability measured after 24 hrs by MTS assay; type: functional; details: read-out: LD50 (the source's name)
P815B [4] = assay: Cytotoxicity against mouse P815B cells assessed as reduction in cell viability at 30 uM measured after 24 hrs by MTS assay; type: functional, cell-based
[5] = Cytotoxicity against mouse P815B cells assessed as reduction in cell viability measured after 6 hrs by MTS assay; type: functional; details: read-out: LD50 (the source's name)
[6] = Cytotoxicity against HEK293 cells assessed as reduction in cell viability measured after 24 hrs by MTS assay; type: toxicity, cell-based; details: human, read-out: LD50
[7] = Cytotoxicity against HEK293 cells assessed as reduction in cell viability measured after 6 hrs by MTS assay; type: toxicity, cell-based; details: human, read-out: LD50
[8] = biological target: T2, Tryptophan 2,3-dioxygenase (Homo sapiens, UniProt P48775); assay: Inhibition of human TDO2 expressed in Escherichia coli BL21-DE3 rosetta cells at pH 6.5 potassium phosphate buffer using L-tryptophan as substrate measured after 15 mins
T2 sequence (P48775 whole entry): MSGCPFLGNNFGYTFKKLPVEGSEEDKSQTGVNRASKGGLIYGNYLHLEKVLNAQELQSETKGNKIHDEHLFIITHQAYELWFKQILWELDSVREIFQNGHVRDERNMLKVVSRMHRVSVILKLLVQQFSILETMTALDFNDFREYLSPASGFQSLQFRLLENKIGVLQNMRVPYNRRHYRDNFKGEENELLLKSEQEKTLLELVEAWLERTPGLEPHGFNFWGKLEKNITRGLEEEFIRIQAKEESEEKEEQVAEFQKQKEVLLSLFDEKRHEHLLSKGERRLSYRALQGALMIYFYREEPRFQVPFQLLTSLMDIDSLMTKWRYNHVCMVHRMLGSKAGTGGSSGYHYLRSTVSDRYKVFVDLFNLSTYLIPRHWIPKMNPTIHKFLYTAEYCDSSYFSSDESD

[9] = Lipophilicity, logKw of compound in methanol and water buffer at pH 2.3 by HPLC-UV analysis; type: physicochemical
[10] = biological target: T2, Tryptophan 2,3-dioxygenase; assay: Inhibition of human TDO2 expressed in mouse P815B cells using L-tryptophan as substrate incubated for 7 hrs by UPLC analysis; type: cell-based
[11] = biological target: T1, Indoleamine 2,3-dioxygenase 1; assay: Inhibition of human IDO1 in potassium phosphate buffer at pH 6.5 using L-tryptophan as substrate incubated for 8 mins
A 172 [12] = assay: Cytotoxicity against human A 172 cells assessed as reduction in cell viability measured after 6 hrs by MTS assay; type: functional; details: read-out: LD50 (the source's name)
[13] = Cytotoxicity against mouse P815B cells assessed as reduction in cell viability measured after 24 hrs by MTS assay; type: functional; details: read-out: LD50 (the source's name)
P815B [14] = assay: Induction of ROS generation in mouse P815B cells assessed as increase in H2O2 concentration at high concentration measured upto 6 hrs by bioluminescent ROS-Glo H2O2 assay; type: functional, cell-based
[15] = Induction of apoptosis in mouse P815B cells assessed as viable cells at 5 uM measured after 24 hrs by Annexin V-FITC/PI staining based flow cytometry method relative to control; type: functional; details: read-out: Activity
[16] = Induction of apoptosis in mouse P815B cells assessed as viable cells at 1 uM measured after 24 hrs by Annexin V-FITC/PI staining based flow cytometry method relative to control; type: functional; details: read-out: Activity
[17] = Induction of cell cycle arrest in mouse P815B cells assessed as accumulation of cells at G1 phase at 5 uM measured after 24 hrs by PI staining based flow cytometry method (reference value: 42.8%); type: functional
[18] = Induction of apoptosis in mouse P815B cells assessed as necrotic cells at 10 uM measured after 24 hrs by Annexin V-FITC/PI staining based flow cytometry method relative to control; type: functional
[19] = Induction of apoptosis in mouse P815B cells assessed as late apoptotic cells at 5 uM measured after 24 hrs by Annexin V-FITC/PI staining based flow cytometry method relative to control; type: functional
[20] = Induction of apoptosis in mouse P815B cells assessed as necrotic cells at 5 uM measured after 24 hrs by Annexin V-FITC/PI staining based flow cytometry method relative to control; type: functional
[21] = Induction of apoptosis in mouse P815B cells assessed as late apoptotic cells at 1 uM measured after 24 hrs by Annexin V-FITC/PI staining based flow cytometry method relative to control; type: functional
[22] = Induction of apoptosis in mouse P815B cells assessed as early apoptotic cells at 1 uM measured after 24 hrs by Annexin V-FITC/PI staining based flow cytometry method relative to control; type: functional
[23] = Induction of apoptosis in mouse P815B cells assessed as late apoptotic cells at 10 uM measured after 24 hrs by Annexin V-FITC/PI staining based flow cytometry method relative to control; type: functional
[24] = Induction of apoptosis in mouse P815B cells assessed as necrotic cells at 1 uM measured after 24 hrs by Annexin V-FITC/PI staining based flow cytometry method relative to control; type: functional
[25] = Induction of apoptosis in mouse P815B cells assessed as necrotic cells at 10 uM measured after 6 hrs by Annexin V-FITC/PI staining based flow cytometry method relative to control; type: functional
[26] = Induction of apoptosis in mouse P815B cells assessed as early apoptotic cells at 10 uM measured after 24 hrs by Annexin V-FITC/PI staining based flow cytometry method relative to control; type: functional
[27] = Induction of apoptosis in mouse P815B cells assessed as apoptotic cells at 10 uM measured after 6 hrs by Annexin V-FITC/PI staining based flow cytometry method relative to control; type: functional
[28] = Induction of apoptosis in mouse P815B cells assessed as viable cells at 10 uM measured after 24 hrs by Annexin V-FITC/PI staining based flow cytometry method relative to control; type: functional; details: read-out: Activity
[29] = Induction of cell cycle arrest in mouse P815B cells assessed as accumulation of cells at S phase at 5 uM measured after 24 hrs by PI staining based flow cytometry method (reference value: 45.0%); type: functional
[30] = Induction of cell cycle arrest in mouse P815B cells assessed as accumulation of cells at G2 phase at 5 uM measured after 24 hrs by PI staining based flow cytometry method (reference value: 14.6%); type: functional
[31] = Induction of apoptosis in mouse P815B cells assessed as early apoptotic cells at 5 uM measured after 24 hrs by Annexin V-FITC/PI staining based flow cytometry method relative to control; type: functional

## c1ccc2c(-c3cnc4nsnc4c3)c[nH]c2c1
[1]
  half-life at 10 µM: 22 min
[2]
  IC50: > 100 µM
A 172 [3]
  CC50: > 80 µM
P815B [4]
  Activity: Toxic
[5]
  CC50: > 80 µM
[6]
  CC50 at 24 h: > 80 µM
[7]
  CC50 at 6 h: > 80 µM
[8]
  IC50: 4.7 µM
[9]
  logKw: 3.3
[10]
  IC50: 0.082 µM
[11]
  IC50: > 100 µM
A 172 [12]
  CC50: > 80 µM
[13]
  CC50: 30 µM

## c1ccc2c(-c3cnc4n[se]nc4c3)c[nH]c2c1
[1]
  half-life at 10 µM: 28.3 min
[2]
  IC50: > 100 µM
A 172 [3]
  CC50: > 80 µM
P815B [4]
  Activity: Toxic
P815B [14]
  Activity: Active
[5]
  CC50: > 80 µM
[6]
  CC50 at 24 h: > 80 µM
[7]
  CC50 at 6 h: > 80 µM
[8]
  IC50: 4.5 µM
[9]
  logKw: 2.9
[10]
  IC50: 0.171 µM
[11]
  IC50: > 100 µM
A 172 [12]
  CC50: > 80 µM
[13]
  CC50: 30 µM

## c1ccc2c(-c3ccc4nonc4c3)c[nH]c2c1
[1]
  half-life at 10 µM: 24.6 min
[2]
  IC50: > 100 µM
A 172 [3]
  CC50: 30 µM
[5]
  CC50: 10 µM
[6]
  CC50 at 24 h: > 80 µM
[7]
  CC50 at 6 h: > 80 µM
[8]
  IC50: 3.4 µM
[9]
  logKw: 4.1
[10]
  IC50: 0.051 µM
[11]
  IC50: > 100 µM
A 172 [12]
  CC50: 30 µM
[13]
  CC50: 10 µM

## c1ccc2c(-c3ccc4n[se]nc4c3)c[nH]c2c1
[1]
  half-life at 10 µM: 70.2 min
[2]
  IC50: > 100 µM
[15]
  viability at 5 µM: 79.2%
A 172 [3]
  CC50: 30 µM
[16]
  viability at 1 µM: 81%
[17]
  Activity: 47.3%
P815B [14]
  Activity: Active
[5]
  CC50: 30 µM
[6]
  CC50 at 24 h: 10 µM
[18]
  Activity: 0.55%
[19]
  Activity: 14.2%
[7]
  CC50 at 6 h: 30 µM
[20]
  Activity: 1.46%
[21]
  Activity: 16.6%
[8]
  IC50: 2.5 µM
[9]
  logKw: 3.5
[10]
  IC50: 0.094 µM
[11]
  IC50: > 100 µM
[22]
  Activity: 1.15%
[23]
  Activity: 44.1%
[24]
  Activity: 1.24%
[25]
  Activity: 27.6%
[26]
  Activity: 2.64%
A 172 [12]
  CC50: 30 µM
[27]
  Activity: 30.4%
[28]
  viability at 10 µM: 52.7%
[29]
  Activity: 41.3%
[13]
  CC50: 3 µM
[30]
  Activity: 11.6%
[31]
  Activity: 5.19%

## c1ccc2c(-c3ccc4nsnc4c3)c[nH]c2c1
[1]
  half-life at 10 µM: 35.6 min
[2]
  IC50: > 100 µM
A 172 [3]
  CC50: 30 µM
[5]
  CC50: 30 µM
[6]
  CC50 at 24 h: > 80 µM
[7]
  CC50 at 6 h: > 80 µM
[8]
  IC50: 3 µM
[9]
  logKw: 4
[10]
  IC50: 0.129 µM
[11]
  IC50: > 100 µM
A 172 [12]
  CC50: 30 µM
[13]
  CC50: 10 µM
